Test results: the supplement of paper PMC10307832

How the values were obtained:
Test in all cases: relative viability (nuclei count vs DMSO), 5 days (fraction); higher = more cells survive
RO-3306 + Crizotinib = compound: C1=CC2=C(C=CC(=C2)C=C3C(=O)NC(=NCC4=CC=CS4)S3)N=C1 [RO-3306] + C[C@@H](Oc1cc(-c2cnn(C3CCNCC3)c2)cnc1N)c1c(Cl)ccc(F)c1Cl [Crizotinib] (partner 1 µM)
Method in brief: (§1)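 Each reported value is a median over duplicate plates. It expresses relative viability: treated-well nuclei count divided by vehicle-well nuclei count. Lung cancer cell lines in 1536-well plates were dosed by pin tool a day after seeding, alone with one drug or with a fixed anchor-drug dose plus five library-drug doses (not always all listed) in √10 steps, and nuclei were counted after 5 days.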

RO-3306 + Decitabine = compound: C1=CC2=C(C=CC(=C2)C=C3C(=O)NC(=NCC4=CC=CS4)S3)N=C1 [RO-3306] + Nc1ncn([C@H]2C[C@H](O)[C@@H](CO)O2)c(=O)n1 [Decitabine] (partner 2 µM)
Method in brief: as §1

[1] = compound: O=S(=O)(c1ccccc1)N(CC(F)(F)F)c1ccc(C(O)(C(F)(F)F)C(F)(F)F)cc1 + COc1cccc2cc(-c3nc([C@H]4CC[C@H](C(=O)O)CC4)n4ncnc(N)c34)[nH]c12 [OSI-027] (partner 0.5 µM)
Method in brief: as §1

[2] = compound: O=S(=O)(c1ccccc1)N(CC(F)(F)F)c1ccc(C(O)(C(F)(F)F)C(F)(F)F)cc1 + Cc1nc(Nc2ncc(C(=O)Nc3c(C)cccc3Cl)s2)cc(N2CCN(CCO)CC2)n1 [Dasatinib] (partner 0.075 µM)
Method in brief: as §1

HCC-366 showed a relative viability (RO-3306 + Crizotinib; first compound 0.01 µM) of 0.566, a relative viability (RO-3306 + Crizotinib; first compound 0.03162 µM) of 0.611 and a relative viability (RO-3306 + Crizotinib; first compound 0.1 µM) of 0.486. For the same cell line, the relative viability (RO-3306 + Crizotinib; first compound 0.3162 µM) was 0.603, the relative viability (RO-3306 + Crizotinib; first compound 1 µM) was 0.522 and the relative viability (RO-3306 + Decitabine; first compound 0.01 µM) was 0.363. For the same cell line, the relative viability (RO-3306 + Decitabine; first compound 0.03162 µM) was 0.281, the relative viability (RO-3306 + Decitabine; first compound 0.1 µM) was 0.348 and the relative viability (RO-3306 + Decitabine; first compound 0.3162 µM) was 0.37. The relative viability (RO-3306 + Decitabine; first compound 1 µM) was 0.402, the relative viability ([1]; first compound 0.8 µM) was 1.16 and the relative viability ([1]; first compound 2.53 µM) was 0.872. It also gave a relative viability ([1]; first compound 8 µM) of 0.729, a relative viability ([2]; first compound 0.8 µM) of 0.856 and a relative viability ([2]; first compound 2.53 µM) of 0.674. The relative viability ([2]; first compound 8 µM) was 0.606.

For HCC-827, the relative viability (RO-3306 + Crizotinib; first compound 0.01 µM) was 0.95, the relative viability (RO-3306 + Crizotinib; first compound 0.03162 µM) was 0.866 and the relative viability (RO-3306 + Crizotinib; first compound 0.1 µM) was 0.943. The relative viability (RO-3306 + Crizotinib; first compound 0.3162 µM) was 0.903, the relative viability (RO-3306 + Crizotinib; first compound 1 µM) was 0.972 and the relative viability (RO-3306 + Decitabine; first compound 0.01 µM) was 0.339. It also gave a relative viability (RO-3306 + Decitabine; first compound 0.03162 µM) of 0.316, a relative viability (RO-3306 + Decitabine; first compound 0.1 µM) of 0.345 and a relative viability (RO-3306 + Decitabine; first compound 0.3162 µM) of 0.379. For the same cell line, the relative viability (RO-3306 + Decitabine; first compound 1 µM) was 0.289, the relative viability ([1]; first compound 0.8 µM) was 0.883 and the relative viability ([1]; first compound 2.53 µM) was 0.858. The relative viability ([1]; first compound 8 µM) was 0.766, the relative viability ([2]; first compound 0.8 µM) was 0.37 and the relative viability ([2]; first compound 2.53 µM) was 0.36. For the same cell line, the relative viability ([2]; first compound 8 µM) was 0.316.

With HOP-62 the relative viability (RO-3306 + Crizotinib; first compound 0.01 µM) was 1.2, the relative viability (RO-3306 + Crizotinib; first compound 0.03162 µM) was 1.09 and the relative viability (RO-3306 + Crizotinib; first compound 0.1 µM) was 0.973. It also gave a relative viability (RO-3306 + Crizotinib; first compound 0.3162 µM) of 1.05, a relative viability (RO-3306 + Crizotinib; first compound 1 µM) of 0.891 and a relative viability (RO-3306 + Decitabine; first compound 0.01 µM) of 0.229. The relative viability (RO-3306 + Decitabine; first compound 0.03162 µM) was 0.239, the relative viability (RO-3306 + Decitabine; first compound 0.1 µM) was 0.207 and the relative viability (RO-3306 + Decitabine; first compound 0.3162 µM) was 0.222. It also gave a relative viability (RO-3306 + Decitabine; first compound 1 µM) of 0.249, a relative viability ([1]; first compound 0.8 µM) of 0.904 and a relative viability ([1]; first compound 2.53 µM) of 0.878. The relative viability ([1]; first compound 8 µM) was 0.665, the relative viability ([2]; first compound 0.8 µM) was 0.716 and the relative viability ([2]; first compound 2.53 µM) was 0.552. It also gave a relative viability ([2]; first compound 8 µM) of 0.544.

For IA-LM, the relative viability (RO-3306 + Crizotinib; first compound 0.01 µM) was 0.905, the relative viability (RO-3306 + Crizotinib; first compound 0.1 µM) was 0.923 and the relative viability (RO-3306 + Crizotinib; first compound 0.3162 µM) was 1.11. The relative viability (RO-3306 + Crizotinib; first compound 1 µM) was 0.546.

Cell Line LC-2-ad has a relative viability (RO-3306 + Crizotinib; first compound 0.01 µM) of 0.404, a relative viability (RO-3306 + Crizotinib; first compound 0.03162 µM) of 0.416 and a relative viability (RO-3306 + Crizotinib; first compound 0.1 µM) of 0.397. The relative viability (RO-3306 + Crizotinib; first compound 0.3162 µM) was 0.425, the relative viability (RO-3306 + Crizotinib; first compound 1 µM) was 0.368 and the relative viability (RO-3306 + Decitabine; first compound 0.01 µM) was 0.869. The relative viability (RO-3306 + Decitabine; first compound 0.03162 µM) was 0.776, the relative viability (RO-3306 + Decitabine; first compound 0.1 µM) was 0.743 and the relative viability (RO-3306 + Decitabine; first compound 0.3162 µM) was 0.785. For the same cell line, the relative viability (RO-3306 + Decitabine; first compound 1 µM) was 0.759, the relative viability ([1]; first compound 0.8 µM) was 0.876 and the relative viability ([1]; first compound 2.53 µM) was 0.889. It also gave a relative viability ([1]; first compound 8 µM) of 0.827, a relative viability ([2]; first compound 0.8 µM) of 0.655 and a relative viability ([2]; first compound 2.53 µM) of 0.525. It also gave a relative viability ([2]; first compound 8 µM) of 0.627.

In the case of LCLC-97TM1, the relative viability (RO-3306 + Crizotinib; first compound 0.03162 µM) is reported as 0.379, the relative viability (RO-3306 + Crizotinib; first compound 0.1 µM) is reported as 0.313 and the relative viability (RO-3306 + Crizotinib; first compound 0.3162 µM) is reported as 0.338. It also gave a relative viability (RO-3306 + Crizotinib; first compound 1 µM) of 0.31, a relative viability (RO-3306 + Decitabine; first compound 0.01 µM) of 0.203 and a relative viability (RO-3306 + Decitabine; first compound 0.03162 µM) of 0.223. It also gave a relative viability (RO-3306 + Decitabine; first compound 0.1 µM) of 0.196, a relative viability (RO-3306 + Decitabine; first compound 0.3162 µM) of 0.229 and a relative viability (RO-3306 + Decitabine; first compound 1 µM) of 0.266. It also gave a relative viability ([1]; first compound 0.8 µM) of 0.614, a relative viability ([1]; first compound 2.53 µM) of 0.527 and a relative viability ([1]; first compound 8 µM) of 0.603. It also gave a relative viability ([2]; first compound 0.8 µM) of 0.724, a relative viability ([2]; first compound 2.53 µM) of 0.734 and a relative viability ([2]; first compound 8 µM) of 0.682.

Cell Line LCLC-103H has a relative viability (RO-3306 + Crizotinib; first compound 0.01 µM) of 1.1, a relative viability (RO-3306 + Crizotinib; first compound 0.03162 µM) of 1.01 and a relative viability (RO-3306 + Crizotinib; first compound 0.1 µM) of 1.01. For the same cell line, the relative viability (RO-3306 + Crizotinib; first compound 0.3162 µM) was 1.05, the relative viability (RO-3306 + Crizotinib; first compound 1 µM) was 0.951 and the relative viability (RO-3306 + Decitabine; first compound 0.01 µM) was 0.772. For the same cell line, the relative viability (RO-3306 + Decitabine; first compound 0.03162 µM) was 0.651, the relative viability (RO-3306 + Decitabine; first compound 0.1 µM) was 0.695 and the relative viability (RO-3306 + Decitabine; first compound 0.3162 µM) was 0.768. It also gave a relative viability (RO-3306 + Decitabine; first compound 1 µM) of 0.713, a relative viability ([1]; first compound 0.8 µM) of 0.507 and a relative viability ([1]; first compound 2.53 µM) of 0.505. The relative viability ([1]; first compound 8 µM) was 0.439, the relative viability ([2]; first compound 0.8 µM) was 0.553 and the relative viability ([2]; first compound 2.53 µM) was 0.484. It also gave a relative viability ([2]; first compound 8 µM) of 0.51.

LK-2 showed a relative viability (RO-3306 + Crizotinib; first compound 0.01 µM) of 0.232, a relative viability (RO-3306 + Crizotinib; first compound 0.03162 µM) of 0.239 and a relative viability (RO-3306 + Crizotinib; first compound 0.1 µM) of 0.216. It also gave a relative viability (RO-3306 + Crizotinib; first compound 0.3162 µM) of 0.201, a relative viability (RO-3306 + Crizotinib; first compound 1 µM) of 0.234 and a relative viability (RO-3306 + Decitabine; first compound 0.01 µM) of 0.279. It also gave a relative viability (RO-3306 + Decitabine; first compound 0.03162 µM) of 0.215, a relative viability (RO-3306 + Decitabine; first compound 0.1 µM) of 0.282 and a relative viability (RO-3306 + Decitabine; first compound 0.3162 µM) of 0.301. The relative viability (RO-3306 + Decitabine; first compound 1 µM) was 0.286, the relative viability ([1]; first compound 0.8 µM) was 0.213 and the relative viability ([1]; first compound 2.53 µM) was 0.199. It also gave a relative viability ([1]; first compound 8 µM) of 0.229, a relative viability ([2]; first compound 0.8 µM) of 0.36 and a relative viability ([2]; first compound 2.53 µM) of 0.37. For the same cell line, the relative viability ([2]; first compound 8 µM) was 0.432.

Cell Line LOU-NH91 has a relative viability (RO-3306 + Crizotinib; first compound 0.01 µM) of 0.938, a relative viability (RO-3306 + Crizotinib; first compound 0.03162 µM) of 0.728 and a relative viability (RO-3306 + Crizotinib; first compound 0.1 µM) of 0.739. It also gave a relative viability (RO-3306 + Crizotinib; first compound 0.3162 µM) of 0.706, a relative viability (RO-3306 + Crizotinib; first compound 1 µM) of 0.685 and a relative viability (RO-3306 + Decitabine; first compound 0.01 µM) of 0.829. For the same cell line, the relative viability (RO-3306 + Decitabine; first compound 0.03162 µM) was 0.787, the relative viability (RO-3306 + Decitabine; first compound 0.1 µM) was 0.796 and the relative viability (RO-3306 + Decitabine; first compound 0.3162 µM) was 0.823. The relative viability (RO-3306 + Decitabine; first compound 1 µM) was 0.79, the relative viability ([1]; first compound 0.8 µM) was 0.722 and the relative viability ([1]; first compound 2.53 µM) was 0.718. For the same cell line, the relative viability ([1]; first compound 8 µM) was 0.79, the relative viability ([2]; first compound 0.8 µM) was 0.576 and the relative viability ([2]; first compound 2.53 µM) was 0.567. The relative viability ([2]; first compound 8 µM) was 0.68.
